{"source": "patent US11788060B2", "about": "“Small molecule compound composition that efficiently induces differentiation of human pluripotent stem cells into myocardial cells” (Shanghai Institute of Nutrition and Health, Chinese Academy …, priority 2016, dated 2023)", "key": {"[1]": {"tested_on": "human embryonic stem cells", "experiment": "Cell count of stem cells in high-density monolayer culture", "format": "cell-based", "conditions": "DMSO, CHIR or CHIR+rapamycin; 5×10^4/cm^2, days 1-4", "description": "The correlated detection was performed under three treatment conditions of DMSO, CHIR and CHIR+rapamycin. […] (Due to the replacement of the culture medium on the 4th day, stem cells underwent massive death because of the rapid changes in the environment)."}, "Parp": {"tested_on": "Parp", "experiment": "Western blot of Parp cleavage", "format": "cell-based, human", "conditions": "first 4 days of treatment", "text": "Wherein figure (A and B) show the influence of different small molecules on proliferation rate of the stem cells by means of cell cycle analysis and BrdU proliferation detection. (C) Western blot analysis of intracellular Parp protein cleavage to estimate cell death under different treatment. (D) Influence of rapamycin on activity of apoptosis executive caspase 3/7 determined by luciferase reporter system. (E) Detection of the proportion of cell death treated with or without rapamycin by Annexin V/PI staining at the end of the culture on day 3 and day 4. […] All the results are statistically analyzed for at least 3 independently repeated experiments (* P<0.05, ** P<0.01).\nCaspase 3, 6, and 7 are the execution proteins of apoptosis and are mainly responsible for the cleavage of structural proteins and regulatory proteins in the nucleus and cytoplasm."}, "stem cells [2]": {"tested_on": "stem cells", "experiment": "Annexin V/PI staining of apoptosis and cell death", "format": "cell-based, human", "description": "Annexin V/PI staining: Annexin V/PI kit (Roche) was used in this experiment. The cells were cultured in 24-well plates. At the specified time, the cells were digested into single cells with accutase and washed once with PBS. The cells were incubated with staining solution containing Annexin V and PI for 10 minutes. Care was taken to avoid light. 5 volumes of incubation solution was added to dilute thereby stopping the reaction and tested by flow cytometry immediately, the excitation lights were 488 nm and 518 nm, the emission lights were 488-540 nm and 617 nm."}, "stem cells [3]": {"tested_on": "stem cells", "experiment": "Cell cycle analysis and BrdU cell proliferation assay", "format": "cell-based, human", "conditions": "compared with DMSO control group", "description": "After 10 μM BrdU (Sigma-Aldrich) was added to incubate the cells for 1 hour, cells were harvested, digested and centrifuged at 300 g for 5 minutes. Cells were collected, washed once with PBS containing 0.5% BSA (wash solution) at room temperature, and resuspended in 1 ml of PBS. 3 ml of pre-cooled ethanol was added with shaking and settled for 20 minutes at room temperature. Centrifuge to remove the supernatant, wash once with PBS, centrifuge to remove supernatant, loosen the pellet by flicking a few times, add 1 ml of the freshly prepared denaturation solution (2M HCl) and mix. Allow to stand at room temperature for 20 minutes; add 1 ml of 0.1 M sodium borate (pH 8.5) to neutralize for 2 minutes at room temperature; rinse once and add anti-BrdU antibody (BD Biosciences 1:50 dilution) prepared with PBS containing 0.5% Tween 20/0.5% BSA (Sigma-Aldrich); aspirate primary antibody, rinse with 1 ml wash solution, add Alexa-488-anti-mouse (1:1000), incubate for 20 minutes at room temperature; aspirate secondary antibody, rinse again, resuspend with 0.5 ml 10 μg/ml PI solution and incubate for 30 minutes at room temperature. The supernatant was removed by centrifugation, rinsed again with a wash solution, and tested with flow cytometry."}}}
{"compound": "Cc1c[nH]c(-c2cnc(NCCNc3ccc(C#N)cn3)nc2-c2ccc(Cl)cc2Cl)n1", "note": "[CHIR99021]", "values": [{"measurement": "stem cell number", "setting": "[1]", "result": "accelerated the increase in stem cell number in the first 3 days"}, {"measurement": "Parp cleavage band", "setting": "Parp", "result": "gradually increased"}, {"measurement": "proportion of cell death", "setting": "stem cells [2]; 4th day, 24 hours after replacing with RPMI/B27 differentiation medium", "result": "nearly half"}, {"measurement": "Annexin V-positive apoptotic cells", "setting": "stem cells [2]; end of culture on the third day", "result": 25.8, "unit": "%"}, {"measurement": "proportion of cells in S phase and proportion of BrdU positive cells", "setting": "stem cells [3]", "result": "slightly increased"}]}
